According to PMC6892914, “Interactions of Ionic Liquids and Spirocyclic Compounds with Liposome Model Membranes. A Steady-State Fluorescence Anisotropy Study” (Scientific Reports, 2019):

Assays:
[1] = Steady-state fluorescence anisotropy of DPH-doped liposomes, POPC; type: physicochemical; conditions: 5 min incubation at RT
From the text: (§1) The technique used in the present study was steady-state fluorescence anisotropy spectroscopy (fluorescence anisotropy or anisotropy in the following text). The technique was utilised to detect organisational changes within the lipid bilayer using a fluorescent 1,6-diphenyl-1,3,5-hexatriene (DPH) probe. DPH is advantageous in the present application due to its high quantum yield and its ability to indicate subtle changes in the lipid acyl chain organisation. For general reviews on the technique, see Shinitzky & Barenholz[18] and Lentz[19]. The rod-like hydrophobic probe is rotating within the bilayer structure by Brownian motion and it is located between the hydrophobic acyl chains of the lipids. When the probe-containing liposomes are illuminated with UV-light at a fixed wavelength and a fixed level of polarized light, the probe is first excited and subsequently emits light that is partly depolarized, due to the molecular rotations of the probe. This depolarization can be measured as a numerical value of anisotropy (r), as shown by Eq. 1.1 r=I||−I⊥/IT where I|| and I⊥ are the intensities of emitted light parallel and perpendicular to the plane of excitation, respectively. IT is the total intensity of emitted light.
(§2) A reference anisotropy value for each pure liposome was determined daily. This was performed in order to normalise the liposome batch-to-batch and liposome-aging-dependent variation of the anisotropy values. The anisotropy was measured ten times and the mean ± standard deviation was calculated. Subsequently, the pure liposomes and the compounds under investigation were mixed and incubated at room temperature for 5 min, before measuring the anisotropy.
(§3) The lipids and the DPH probe were dissolved in chloroform as stock solutions and the stocks were mixed to give the target molar proportions for each liposome composition (Table 2). After mixing the chloroform lipid stocks, the lipid mixture was dried as a thin film on test tube walls by evaporating the chloroform using a flow of air, until no solvent was visible. The dried thin film of lipids was kept under vacuum for at least 12 h in a desiccator, in order to remove any traces of solvent. Ultra-pure water was added to reach the target lipid concentration of 4.0 mM. […] The aqueous mixture of DPH, lipids and water were incubated under agitation for 60 min at 65 °C and 75 °C to form the non-cholesterol-containing and cholesterol-containing multilamellar liposomes, respectively. Subsequently, the 4.0 mM liposome stock dispersions were extruded through 100 nm pore-size polycarbonate filters 19 times using an Avanti mini-extruder (Avanti Polar Lipids, Alabaster, AL, USA) in order to obtain unilamellar liposomes.
(§4) The fluorescence anisotropy values were measured using a Horiba Jobin Yvon (Northampton, UK) FluoroMax-4 spectrofluorometer, in L-format. The emission and the excitation […] were always set to the same value (8–10 nm) so that the photon counts/second at the detector were as recommended by the manufacturer (from 500 000 to 2 000 000 counts/second). The excitation and emission wavelengths were 360 nm and 450 nm, respectively. The measurements were performed at 21 ± 1 °C. Physiological temperature was not used, since the interactions between the living organism (Vibrio Fischeri) also takes place at a non-physiological temperature of 15 °C. The maximum 7 °C difference (15 °C vs. 22 °C) was considered acceptable. A reference value for the pure liposomes was measured daily. […] Both concentrations were selected by trial and error.

[2] = Steady-state fluorescence anisotropy of DPH-doped liposomes, POPC/POPS/Chol 55:20:25; type: physicochemical; conditions: compound 50 mM, 5 min incubation at RT
From the text: as §1, §2, §3
as §4, with “daily. In order to study the interaction between the compounds and the liposomes, the pure liposomes were mixed with the compounds so that the final concentration of the lipids was 20 µM and that of the studied compounds was 50 mM.” for “daily.”

[3] = Steady-state fluorescence anisotropy of DPH-doped liposomes, POPC/POPS 80:20; type: physicochemical; conditions: compound 50 mM, 5 min incubation at RT
From the text: as §1, §2, §3
as §4, with “daily. In order to study the interaction between the compounds and the liposomes, the pure liposomes were mixed with the compounds so that the final concentration of the lipids was 20 µM and that of the studied compounds was 50 mM.” for “daily.”

[4] = Steady-state fluorescence anisotropy of DPH-doped liposomes, POPC/Chol 75:25; type: physicochemical; conditions: compound 50 mM, 5 min incubation at RT
From the text: as §1, §2, §3
as §4, with “daily. In order to study the interaction between the compounds and the liposomes, the pure liposomes were mixed with the compounds so that the final concentration of the lipids was 20 µM and that of the studied compounds was 50 mM.” for “daily.”

[5] = 333 mM; cited from earlier work
[6] = Steady-state fluorescence anisotropy of DPH-doped liposomes, POPC/POPS 80:20; type: physicochemical; conditions: compound 0.2 mM, 5 min incubation at RT
[7] = Steady-state fluorescence anisotropy of DPH-doped liposomes, POPC/Chol 75:25; type: physicochemical; conditions: compound 0.2 mM, 5 min incubation at RT
[8] = Steady-state fluorescence anisotropy of DPH-doped liposomes, POPC/POPS/Chol 55:20:25; type: physicochemical; conditions: compound 0.2 mM, 5 min incubation at RT
[9] = Steady-state fluorescence anisotropy, stated over the liposome compositions; type: physicochemical; conditions: four liposome compositions; compound 50 mM
From the text: as §1
as §2, with “anisotropy. Similar to the reference measurements, the fluorescence anisotropy value after incubation with the ILs was recorded 10 times and the mean ± standard deviation was calculated.” for “anisotropy.”
In this equation r0 is the fundamental anisotropy in the absence of rotational diffusion of the probe, i.e. the maximum anisotropy value achievable using the specific excitation wavelength. At 360 nm r0 = 0.362 for DPH[26]. C(r) relates the molecular shape and the location of the transition dipoles of the rotating probe into one parameter. For spherical probes C(r) = k/v, where k is the Boltzmann constant and v is the effective volume of the probe. Therefore, C(r) would be constant for spherical molecules, but for other shapes, such as the rod-like DPH, the value is dependent on the experimental value of r. In contrast, as experimentally determined by Shinitzky and Barenholtz, the factor C(r)· T· τ = 240 mPa · s is relatively constant at 0–40 °C in membranes doped with DPH probe. T and τ are the temperature during the experiment and lifetime of the excited state, respectively. By substituting r0 = 0.362 and C(r)· T· τ = 240 mPa · s and by further rearranging of the Eqs. 2 and 3 is obtained.3 η=240mPas⋅r/0.362−r
The equation gives the approximate apparent microviscosity (±15%) based on the recorded anisotropy values. The benefit of determining this is the hyperbolic growth of the apparent microviscosity relatively to anisotropy. […]
In order to compare the anisotropy values with the toxicity values in greater detail, the relative change in anisotropy Δr (%) was calculated as given by Eq. 44 Δr=rliposome+toxicant−rpureliposome/rpureliposome where rpure liposome is the daily anisotropy value measured for each pure liposome and r liposome+toxicant the anisotropy value measured after mixing the pure liposome with the compound of interest. […]

Compound | Relative change in anisotropy, Δr ([1]; compound 50 mM) | Relative change in anisotropy, Δr [2] | Relative change in anisotropy, Δr [3] | Relative change in anisotropy, Δr [4] | changes in fluorescence polarisation [5] | Relative change in anisotropy, Δr [6] | Relative change in anisotropy, Δr ([1]; compound 0.2 mM) | Relative change in anisotropy, Δr [7] | Relative change in anisotropy, Δr [8] | Δr, range depending on the liposome composition [9]
C1CCC[N+]2(CC1)CCCCC2.CC(=O)[O-] [[5.6][OAc], 6-Azoniaspiro[5.6]dodecane acetate] | -19% | -27% | -22% | -21% |  |  |  |  |  | 
CCO [ethanol] |  |  |  |  | < 10% |  |  |  |  | 
C1CC[N+]2(CC1)CCCCC2.CC(=O)[O-] [[5.5][OAc], 6-Azoniaspiro[5.5]undecane acetate] | -16% | -25% | -18% | -18% |  |  |  |  |  | 
5-Methyl-1,5,7-triazabicyclo[4.3.0]non-6-enium & 7-Methyl-1,5,7-triazabicyclo[4.3.0]non-5-enium mesylate [[MTBNH][OMs]] | -20% | -36% | -26% | -27% |  |  |  |  |  | 
CC(=O)[O-].CCCCCCCC[P+](C)(CCCCCCCC)CCCCCCCC [[P8881][OAc], Methyltrioctylphosphonium acetate] |  |  |  |  |  | -36% | -19% | -41% | -47% | 
CC(=O)[O-].[Na+] [NaOAc, Sodium acetate, reference compound] | 11% | 12% | 13% | 12% |  |  |  |  |  | 11–13%
C1CC[N+]2(CC1)CCCC2.CC(=O)[O-] [[4.5][OAc], 5-Azoniaspiro[4.5]decane acetate] | 6% | -6% | -5% | -1% |  |  |  |  |  | −6% to +6
CCN(CC)CC.CS(=O)(=O)O [[TEAH][OMs], Triethylammonium mesylate] | 7% | -4% | -5% | 2% |  |  |  |  |  | −5% to +7
CS(=O)(=O)[O-].[Na+] [NaOMs, Sodium mesylate, reference compound] | 17% | 13% | 11% | 6% |  |  |  |  |  | 6–17%
C1CCC2=NCCCN2CC1.CS(=O)(=O)O [[DBUH][OMs], 1,8-Diazabicyclo[5.4.0]undec-7-enium mesylate] | -24% | -39% | -33% | -31% |  |  |  |  |  | 
CN(C)C(=N)N(C)C.CS(=O)(=O)O [[TMGH][OMs], 1,1,3,3-Tetramethylguanidinium mesylate] | 11% | 5% | 6% | 3% |  |  |  |  |  | 3–11%
